For data set [1] the following is noted: humans; cited from earlier work.
The conditions of data set [2]: human.
The conditions of data set [3]: several combinations of vehicles and enhancers; cited from earlier work.
For data set [4] the following is noted: cited from earlier work.

The source of these data is patent US5096715A, “Method and means for treating alcoholism by extinguishing the alcohol-drinking response using a transdermally administered opiate antagonist” (Alko Ltd., priority 1989, dated 1992).

SMILES strings stand for the structures. Entries after “also recorded” stand apart in the source; their conditions may differ.

For the molecule `O=C1CC[C@@]2(O)[C@H]3Cc4ccc(O)c5c4[C@@]2(CCN3CC2CC2)[C@H]1O5` [naltrexone], the severe side-effects result in data set [1] is reported as “free of severe side-effects”.

`C=CCN1CC[C@]23c4c5ccc(O)c4O[C@H]2C(=O)CC[C@@]3(O)[C@H]1C5` [naloxone]: the “naloxone present to block alcohol reinforcement at end of session” value in data set [2] (4-7 hrs later, transdermal) is on record as “Sufficient quantities of naloxone to block alcohol reinforcement would still be present; also recorded: Sufficient amounts of naloxone to block alcohol reinforcement would still be present”. In addition, in data set [2] (skin area of 900-1000 cm^2), the systemic delivery rate entry is “about 5 mg/min”. Further, the “time to deliver the entire 30 mg systemically” value in data set [2] (including lag time of 18 min) was “half an hour”. For the same molecule, the rates for naloxone result in data set [3] is recorded as “over 300 μg/cm^2 /hr”. Also, the “half-life in the body” value in data set [4] is “desirably short half-life”.
